Key:
Magnaporthe grisea = assay: whole plant or invertebrate; assay type: in vivo; settings: Blast on rice; control value class
Alternaia brassicicola = assay: Test Example C: Alternaria sooty spot on cabbage; assay type: in vivo; settings: Alternaria sooty spot on cabbage; control value class
Source text: Seeds of a test plant (cabbage variety: Shikidori) were planted and cultivated until the cotyledons extended.
<Control Value> Control value=100{1−(n/3)}

[1] = system: Blumeria graminis f. sp. hordei; assay: Test Example D: Powdery mildew on barley; settings: Powdery mildew on barley; control value class
Phytophthora infestans = assay: whole plant or invertebrate; assay type: in vivo; settings: Late blight on tomato; control value class
Puccinia recondita = assay: Test Example E: Brown rust on wheat; assay type: in vivo; settings: Brown rust on wheat; control value class
Botrytis cinerea = assay: Test Example B: Gray mold on tomato; settings: Gray mold on tomato; control value class
Method: Seeds of a test plant (tomato variety: Oogata Fukuju) were planted and cultivated until three to five first leaves (true leaves) appeared. In the test, the inventive compounds were dissolved into dimethyl sulfoxide-methanol mixture solution (volume ratio: 9/1), and the resultant solutions were diluted with well water to a concentration of 250 ppm to obtain the drug solutions. The drug solutions were sprayed to the test plant (2.5 ml/pot). After the drug solutions dried, a conidial suspension (4-8×10^5 conidia/ml) of Botrytis cinerea was inoculated to the plant by spraying. After the inoculation, the plant was kept in a mist chamber at room temperature of 20 to 23° C. for about 48 hours to promote the onset of disease. The degrees of disease development were investigated 2 to 3 days after the inoculation, and the effectiveness of the drug solutions was evaluated.
In Test Examples described above, the degrees of disease development were evaluated in increments of 0.05 from 0 (as no incidence of disease) to 3 (as the degree of disease development in an untreated plant group). Further, control values were calculated using the following equation based on the degree of disease development.
n=Degree of disease development in each treated group
In the table, H: more than 50% control value, L: 50% or less control value, and nt: not tested.

[2] = system: Colletotrichum orbiculare; assay: Test Example H: Anthracnose on cucumber; settings: Anthracnose on cucumber; 250 ppm spray, 6 to 10 days after inoculation
Plasmopara viticola = assay: Test Example G: Downy mildew on vine; settings: Downy mildew on vine; 250 ppm spray, 7 to 10 days after inoculation

| Structure (SMILES) | Test A control value (Magnaporthe grisea) | Test C control value (Alternaia brassicicola) | Test D control value [1] | Test F control value (Phytophthora infestans) | Test E control value (Puccinia recondita) | Test B control value (Botrytis cinerea) | Test H control value [2] | Test G control value (Plasmopara viticola) |
| --- | --- | --- | --- | --- | --- | --- | --- | --- |
| CCn1c(-c2c(F)cc(F)cc2F)c(C(O)C2CC2)cc(Cl)c1=O (stereo not shown) [compound 258] | H (more than 50% control value) | H (more than 50% control value) | H (more than 50% control value) | L (50% or less control value) | H (more than 50% control value) | H (more than 50% control value) | H (more than 50% control value) | H (more than 50% control value) |
| CCn1c(-c2c(F)cc(F)cc2F)c(C(OC(C)=O)C2CC2)cc(Cl)c1=O (stereo not shown) [compound 259] | H (more than 50% control value) | H (more than 50% control value) | H (more than 50% control value) | L (50% or less control value) | H (more than 50% control value) | H (more than 50% control value) | H (more than 50% control value) | H (more than 50% control value) |
| CCn1c(-c2c(F)cc(F)cc2F)c(C(=O)C2CC2)cc(Cl)c1=O [compound 260] | H (more than 50% control value) | H (more than 50% control value) | H (more than 50% control value) | H (more than 50% control value) | H (more than 50% control value) | H (more than 50% control value) | H (more than 50% control value) | L (50% or less control value) |
| CCn1c(-c2c(F)cc(F)cc2F)c(C(C)(O)C2CC2)cc(Cl)c1=O (stereo not shown) [compound 261] | H (more than 50% control value) | H (more than 50% control value) | H (more than 50% control value) | L (50% or less control value) | H (more than 50% control value) | H (more than 50% control value) | H (more than 50% control value) | H (more than 50% control value) |
| CCn1c(-c2ccccc2Cl)c(CC(C)C)ccc1=O [compound 262] | L (50% or less control value) | H (more than 50% control value) | H (more than 50% control value) | L (50% or less control value) | H (more than 50% control value) | H (more than 50% control value) | H (more than 50% control value) | L (50% or less control value) |
| CCc1cc(F)ccc1-c1c(CC(C)C)cc(Cl)c(=O)n1CC [compound 263] | H (more than 50% control value) | H (more than 50% control value) | H (more than 50% control value) | L (50% or less control value) | H (more than 50% control value) | H (more than 50% control value) | H (more than 50% control value) | H (more than 50% control value) |
| CCn1c(-c2ccccc2Cl)c(CC(C)C)cc(Br)c1=O [compound 264] | L (50% or less control value) | H (more than 50% control value) | H (more than 50% control value) | L (50% or less control value) | H (more than 50% control value) | H (more than 50% control value) | H (more than 50% control value) | L (50% or less control value) |
| CCn1c(-c2ccccc2Cl)c(CC(C)C)cc(Cl)c1=O [compound 265] | H (more than 50% control value) | H (more than 50% control value) | H (more than 50% control value) | L (50% or less control value) | H (more than 50% control value) | H (more than 50% control value) | H (more than 50% control value) | H (more than 50% control value) |
| CCCCCCCc1ccc(=O)n(CC)c1-c1ccc(F)cc1Cl [compound 266] | L (50% or less control value) | L (50% or less control value) | H (more than 50% control value) | L (50% or less control value) | H (more than 50% control value) | L (50% or less control value) | H (more than 50% control value) | L (50% or less control value) |
| CCCCCCCCCC1=C(c2ccc(F)cc2Cl)N(CC)C(=O)CC1 [compound 267] | L (50% or less control value) | L (50% or less control value) | H (more than 50% control value) | L (50% or less control value) | L (50% or less control value) | L (50% or less control value) | H (more than 50% control value) | L (50% or less control value) |
| CCCCCCCc1cc(Cl)c(=O)n(CC)c1-c1ccc(F)cc1Cl [compound 268] | L (50% or less control value) | L (50% or less control value) | H (more than 50% control value) | L (50% or less control value) | L (50% or less control value) | L (50% or less control value) | L (50% or less control value) | L (50% or less control value) |
| CCCCCCCc1cc(Br)c(=O)n(CC)c1-c1ccc(F)cc1Cl [compound 269] | L (50% or less control value) | L (50% or less control value) | H (more than 50% control value) | L (50% or less control value) | L (50% or less control value) | L (50% or less control value) | L (50% or less control value) | L (50% or less control value) |
| CCCCCCCCc1ccc(=O)n(CC)c1-c1ccc(F)cc1Cl [compound 270] | L (50% or less control value) | L (50% or less control value) | H (more than 50% control value) | L (50% or less control value) | L (50% or less control value) | L (50% or less control value) | L (50% or less control value) | L (50% or less control value) |
| CCCCCCCCc1cc(Cl)c(=O)n(CC)c1-c1ccc(F)cc1Cl [compound 271] | L (50% or less control value) | L (50% or less control value) | H (more than 50% control value) | L (50% or less control value) | L (50% or less control value) | L (50% or less control value) | L (50% or less control value) | L (50% or less control value) |
| CCCCCCCCc1cc(Br)c(=O)n(CC)c1-c1ccc(F)cc1Cl [compound 272] | L (50% or less control value) | L (50% or less control value) | L (50% or less control value) | L (50% or less control value) | H (more than 50% control value) | L (50% or less control value) | L (50% or less control value) | L (50% or less control value) |
| CCCCCCCCCc1ccc(=O)n(CC)c1-c1ccc(F)cc1Cl [compound 273] | L (50% or less control value) | L (50% or less control value) | H (more than 50% control value) | L (50% or less control value) | L (50% or less control value) | L (50% or less control value) | L (50% or less control value) | L (50% or less control value) |
| CCCCCCCCCc1cc(Cl)c(=O)n(CC)c1-c1ccc(F)cc1Cl [compound 274] | L (50% or less control value) | L (50% or less control value) | H (more than 50% control value) | L (50% or less control value) | L (50% or less control value) | L (50% or less control value) | L (50% or less control value) | L (50% or less control value) |

Source: patent publication US11147272B2, “Pyridone compounds and agricultural and horticultural fungicides comprising the same as active ingredients” (MITSUI CHEMICALS AGRO, INC., priority 2017, dated 2021)
